What all share (experiment): NCI tumour cell line growth inhibition, 48 h
Assay [1] deals with A498 renal.
The subject of assay [2] is CCRF-CEM leukemia.
The subject of assay [3] is COLO 205 colon.
Assay [4] deals with HT29 colon.
Assay [5] concerns IGROV1 ovarian.
In assay [6] the test system is NCI-H522 lung.
Assay [7] concerns OVCAR-5 ovarian.
Assay [8] deals with PC-3 prostate.
Assay [9] concerns SK-MEL-5 melanoma.
Assay [10] has as its system SNB-75 CNS.

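The compound was tested at five concentrations on cells cultured in 96-well plates, with a 48-hour exposure period. GI50 marks 50% less growth. The concentration for full growth arrest is given as TGI.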 Where only a bound is given, the exact number is not on record here.

As for `CC(C)(C)CC(C)(C)NCc1cc(C(C)(C)C)cc(CNC(C)(C)CC(C)(C)C)c1O`, the GI50 in [1] is 2.53 µM; in assay [2] it was 4.18 µM; in assay [3], 1.41 µM; in assay [4], 2.4 µM; in assay [5] it was 3.93 µM; in assay [6], 1.78 µM. In addition, the GI50 in [7] is 3.02 µM; in assay [8] it was 2.86 µM; in [9], 1.61 µM; in assay [10] it was 3.99 µM. For the same compound, the TGI in assay [1] was 11.3 µM; in assay [2], 34.9 µM; in assay [3], 2.8 µM; in assay [4] it was 9.7 µM; in [5] it was 15.9 µM; in assay [6], 3.66 µM. For the same compound, the TGI in assay [7] worked out at 10 µM; in assay [8], 12.2 µM; in assay [9], 2.96 µM; in [10], 15.1 µM.

Regarding `C=C1CCC2C(C)(COC(=O)CC)C(OC(=O)CC)CCC2(C)C1C/C=C1/C(=O)OCC1OC(=O)CC` (stereo not given), the GI50 in [1] is 4.05 µM; in assay [2] it was 0.558 µM; in assay [3], 2.1 µM; in assay [4] it was 0.987 µM; in assay [5], 1.9 µM; in [6], 0.346 µM. For the same compound, the GI50 is 2.45 µM in assay [7], 2.17 µM in [8], 2.08 µM in assay [9] and 1.22 µM in [10]. The TGI in [1] is 13.3 µM; in assay [2], over 100 µM; in assay [3] it was 3.96 µM; in assay [4] it was 2.24 µM; in assay [5], 3.69 µM; in [6] it was 1.7 µM. In addition, the TGI amounted to 5.35 µM in assay [7], 4.91 µM in [8], 4.39 µM in [9] and 3.68 µM in [10].

With `Nc1ccn(C2OC(COC(=O)C34CC5CC(CC(C5)C3)C4)C(O)C2O)c(=O)n1` (stereo not given), the TGI was over 100 µM in assay [1]; 1.87 µM in assay [2]; over 100 µM in [3]; over 100 µM in [4]; over 100 µM in [5]; over 100 µM in [6]. Further, the TGI in assay [7], in [8], in [9] and in assay [10] was over 100 µM throughout.

As to `COc1cc(Nc2nc3ccccc3cc2C(=O)Nc2ccc(F)c(F)c2)cc(OC)c1OC`, the GI50 in [1] is 2.39 µM; in assay [2] it was 3.12 µM; in assay [3], 1.77 µM; in assay [4] it was 3.59 µM; in [5], 4.08 µM; in [6], 2.07 µM. Also, the GI50 in assay [7] was 4.29 µM; in assay [8] it was 2.21 µM; in assay [9], 1.62 µM; in assay [10], 2.27 µM. The TGI in assay [1] was 8.25 µM; in assay [2] it was over 100 µM; in assay [3], 3.78 µM; in [4] it was over 100 µM; in assay [5], over 100 µM; in assay [6], 6.97 µM. Also, the TGI in assay [7] is over 100 µM; in [8], 7.9 µM; in assay [9], 3.11 µM; in [10], 9.35 µM.

Values taken from PubChem BioAssay (NCI).
